Data as given in patent US8222278B2, “Treatment of attention-deficit/hyperactivity disorder” (Abbott Laboratories, priority 2008, dated 2012).

Experiments:
[1] = tested on: adults with ADHD; test: Study A: patient-reported health outcomes (AAQoL, WPAI); assay type: in vivo, human; parameters: WPAI Absenteeism (employed), Mean Diff. / WPAI Impaired Work Effectiveness (employed), Mean Diff. / AAQoL Total, Mean Diff. / WPAI Overall Activity Impairment (all), Mean Diff. / WPAI Overall Work Impairment (employed), Mean Diff.: scale not given here; conditions: ATX 40 mg BID
Procedure: (§1) A clinical study (Study A) was conducted to assess the safety and efficacy of ABT-894 compared to placebo in adults with ADHD and to evaluate the dose-response relationship.
(§2) Subjects in each dose group received, in random order, both ABT-894 and placebo according to a 2×2 crossover design. Each treatment period was 4 weeks separated by a 2-week washout period.
(§3) Secondary efficacy endpoints included the CAARS:Inv Inattentive and Hyperactive/Impulsive Subscale Scores, Clinical Global Impression-ADHD-Severity Scale (CGI-ADHD-S). Adult ADHD Investigator Symptom Report Scale (AISRS), including total and subscales, and the Self-rated Connors Adult ADHD Rating Scale (CAARS-Self). Health outcomes including the Adult ADHD Quality of Life Scale (AAQoL) and Work Productivity and Activity Impairment Questionnaire (WPAI) were used to evaluate the validity of these scales in this study population for use in subsequent clinical trials.

[2] = tested on: adults with ADHD; test: Study A: treatment-emergent adverse events (safety dataset); conditions: Atomoxetine 40 mg BID, N = 50
Procedure: During each visit, blood pressure, heart rate, weight, medication accountability and tolerability, and adverse effects were assessed.
The safety dataset consisted of all subjects who took at least one dose of study drug. The reasons for discontinuation and the treatment-emergent adverse events were summarized by the treatment under which the discontinuation or event was reported.
Treatment-emergent adverse events were those that began or worsened following the first dose of study drug in Period 1. Adverse event monitoring was conducted at each study visit and until 30 days following discontinuation of study drug. Other routine safety assessments included vital signs, electrocardiograms, physical examinations, brief neurological examinations and laboratory tests.

[3] = tested on: adults with ADHD; test: Study A: weight and vital signs; assay type: in vivo, human; conditions: Atomoxetine 40 mg BID, final evaluation (LOCF)
Procedure: The treatment group differences in vital signs were analyzed using a Grizzle Model similar to the model used for the efficacy analyses with the exclusion of period-specific baselines.

[4] = tested on: adults with ADHD; test: Study A: ABT-894 Adult ADHD Dose-Ranging crossover clinical study, efficacy rating scales; assay type: in vivo, human; conditions: Atomoxetine 40 mg BID
Procedure: as §1
A total of 243 subjects aged 18 to 60 years old meeting DSM-IV-TR criteria for ADHD were randomized across the 5 dose groups. Male or female patients were included. […] The disposition of the study subjects is further discussed with the study results below.
as §2
Each site was assigned to one of two cohorts (Cohort A or Cohort B) in approximately a 3:2 ratio. Subjects in Cohort A were randomized in equal proportions to one of 6 treatment sequences in 3 dose groups, and subjects in Cohort B were randomized in equal proportions to one of 4 treatment sequences in 2 dose groups, as shown in Table 1. Within each dose group subjects received either ABT-894 or atomoxetine in Period 1 and placebo in Period 2, or placebo in Period 1 and ABT-894 or atomoxetine in Period 2.
The study medication was dispensed in the form of a capsule. Each capsule contained ABT-894, atomoxetine, or placebo. The capsules were made to look identical.
The primary efficacy endpoint was the Conners' Adult ADHD Rating Scale—Investigator Rated (CAARS:Inv) Total Score (18 items) at the final evaluation of each 4-week treatment period. The CAARS:Inv was assessed at baseline and Days 7. 14. 21, and 28 of each period. Each CAARS:Inv item was rated on a 4-point scale of frequency of occurrence (0=not at all, never; 3=very much. very frequently) during the previous 7 days.
as §3
The primary analysis was performed on each dose group separately according to the Statistical Analysis Plan (SAP). The primary statistical model that was used for analyzing the primary efficacy variable, the CAARS:INV total score, and all other secondary efficacy variables was determined by a SAP specified testing procedure. The comparability between two sequences for a given dose group with respect to the difference between period-specific baselines was tested using a one-way ANCOVA with the term of treatment and the Period I baseline as the covariate at the significance level of 0.10. The equal residual effect from Period I to Period II between two different sequences for a given dose group was tested using a standard model for cross-over data analysis, Grizzle model, on the term of “sequence” at the significance level of 0.10.
After the study blind was broken, across 5 dose groups. all the tests accepted the null hypothesis that there was no statistically significant treatment effect for the differences between the period-specific baselines. The tests also accepted the null hypothesis that there was no period residual effect in any of the dose groups. Accordingly, the Grizzle model was used as the primary analysis model to analyze treatment group difference for CAARS:INV total score at Day 28 for each dose group. The Grizzle Model was carried out by SAS PROC Mixed with the terms of study center. sequence, subjects within sequence, period, treatment, as well as period-specific baselines as covariates.
The primary efficacy dataset included all subjects who completed both periods of the study (completers dataset). […]

CNCC[C@@H](Oc1ccccc1C)c1ccccc1 [Atomoxetine, (3R)-N-methyl-3-(2-methylphenoxy)-3-phenyl-propan-1-amine, reference compound]
WPAI Absenteeism (employed), Mean Diff. ([1]; N 18): 0.019
WPAI Impaired Work Effectiveness (employed), Mean Diff. ([1]; N 18): −0.143
WPAI Overall Work Impairment (employed), Mean Diff. ([1]; N 18): −0.12
WPAI Overall Activity Impairment (all), Mean Diff. ([1]; N 36): −0.13
AAQoL Total, Mean Diff. ([1]; N 40): 7.23
Any Adverse Event, % of subjects [2]: (82.0) %
Any Adverse Event, number of subjects [2]: 41 subjects
Decreased appetite, % of subjects [2]: (12.0) %
Decreased appetite, number of subjects [2]: 6 subjects
Diarrhea, % of subjects [2]: (2.0) %
Diarrhea, number of subjects [2]: 1 subjects
Dizziness, % of subjects [2]: (8.0) %
Dizziness, number of subjects [2]: 4 subjects
Dry mouth, % of subjects [2]: (6.0) %
Dry mouth, number of subjects [2]: 3 subjects
Fatigue, % of subjects [2]: (12.0) %
Fatigue, number of subjects [2]: 6 subjects
Feeling hot and cold, % of subjects [2]: (6.0) %
Feeling hot and cold, number of subjects [2]: 3 subjects
Feeling jittery, % of subjects [2]: (6.0) %
Feeling jittery, number of subjects [2]: 3 subjects
Headache, % of subjects [2]: (14.0) %
Headache, number of subjects [2]: 7 subjects
Influenza-like illness, % of subjects [2]: (6.0) %
Influenza-like illness, number of subjects [2]: 3 subjects
Lethargy, % of subjects [2]: (6.0) %
Lethargy, number of subjects [2]: 3 subjects
Muscle Strain, % of subjects [2]: (0) %
Muscle Strain, number of subjects [2]: 0 subjects
Nasal congestion, % of subjects [2]: (4.0) %
Nasal congestion, number of subjects [2]: 2 subjects
Nausea, % of subjects [2]: (20.0) %
Nausea, number of subjects [2]: 10 subjects
Parathesia, % of subjects [2]: (10.0) %
Parathesia, number of subjects [2]: 5 subjects
Sleep disturbances, % of subjects [2]: (16.0) %
Sleep disturbances, number of subjects [2]: 8 subjects
Somnolence, % of subjects [2]: (8.0) %
Somnolence, number of subjects [2]: 4 subjects
Upper RTI, % of subjects [2]: (4.0) %
Upper RTI, number of subjects [2]: 2 subjects
Vomiting, % of subjects [2]: (2.0) %
Vomiting, number of subjects [2]: 1 subjects
Diastolic BP, mean difference from placebo [3]: 0.72 mm Hg
Pulse, mean difference from placebo [3]: 4.74 bpm
Systolic BP, mean difference from placebo [3]: 1.16 mm Hg
Weight, mean difference from placebo [3]: -0.73 kg
AISRS Hyperactivity Score, mean difference from placebo ([4]; day 28, completers): −3.29 (−5.4, −1.2)
AISRS Inattention Score, mean difference from placebo ([4]; day 28, completers): −3.81 (−6.1, −1.6)
AISRS Total Score, mean difference from placebo ([4]; day 28, completers): −7.18 (−11.5, −2.9)
CAARS:Self ADHD Index, mean difference from placebo ([4]; day 28, completers): −3.08 (−4.8, −1.3)
CAARS:Self Hyperactivity Score, mean difference from placebo ([4]; day 28, completers): −1.43 (−2.4, −0.5)
CAARS:Self Impulsivity Score, mean difference from placebo ([4]; day 28, completers): −1.17 (−1.9, −0.5)
CAARS:Self Inattention/Memory Score, mean difference from placebo ([4]; day 28, completers): −1.56 (−2.5, −0.6)
CAARS:Self Problem with Self-concept Score, mean difference from placebo ([4]; day 28, completers): −0.70 (−1.5, 0.1)
CAARS:Self Total Score, mean difference from placebo ([4]; day 28, completers): −7.12 (−10.9, −3.3)
CGI-ADHD-S, mean difference from placebo ([4]; day 28, completers): −0.45 (−0.8, −0.1)
CAARS:Inv ADHD Index, mean difference from placebo ([4]; day 28, completers N = 40): −3.00 (−4.9, −1.1)
CAARS:Inv Hyperactive/Impulsive subscale score, mean difference from placebo ([4]; day 28, completers N = 40): −1.43 (−2.4, −0.4)
CAARS:Inv Inattentive subscale score, mean difference from placebo ([4]; day 28, completers N = 40): −3.89 (−6.3. −1.5)
CAARS:Inv Total Score, mean difference from placebo ([4]; day 28, completers N = 40): −7.98 (−12.5. −3.5)
